Measurements taken from patent US4578400A, “Therapeutic composition and method for treatment of cardiovascular diseases” (priority 1982, dated 1986).

Columns and labels:
[1] = test system: ventricular fibrillation after coronary artery ligation; assay: Antiarrhythmic effects on myocardial infarction (coronary ligation); assay type: in vivo, dogs; conditions: for Threshold level for inducing ventricular fibrillation, 30 min after ligation: before ligation = 100, control 41
From the text: Antiarrhythmic effects on myocardial infarction
The method described by Shinohara (Jap. Circul. J., 32, 1269-1281, 1968) was used. Dogs were divided into groups of 5 animals, anesthetized with intravenous pentobarbital and were thoracotomized under artificial respiration, and a platinum bipolar electrode was inserted on the wall of the right atrium. Then the sinus node was crushed and the animals were subjected to pacing (2.5 Hz, 3 msec, 3.5-8 V) with an electronic stimulator. The left anterior descending coronary artery was doubly ligated at a site 2 cm away from its origin (A. S. Harris, Circulation, 1, 1318, 1950). Then 5--HDA--Na and lidocaine were injected into the femoral vein of the respective dogs. Using an electrode inserted in an ischemic zone in the left ventricle, the animals were given 15 to 20 successive electrical shocks before the ligation and 30 minutes after the ligation and administration. The threshold level necessary for inducing ventricular fibrillation was determined for each group of animals and shown in Table 4, with the values before the ligation taken as 100.

[2] = test system: ouabain induced arrhythmia; assay: Effect on ouabain induced arrhythmia; assay type: in vivo, male hartley guinea pigs; conditions: for relative time for extrasystole to occur / relative time for cardiac arrest to occur / relative time for ventricular fibrillation to occur: control = 100
From the text: Effect on ouabain induced arrhythmia
The procedure described in Matsubara et al. (Folia Pharmacologica Japonica, 72, 557-571, 1976) was followed.
Male hartley guinea pigs were divided into groups of 8 animals and anesthetized with intraperitoneal urethane. Three groups were orally administered 5--HDA--Na, 5--HDAE and 5--HDA--DHP dissolved in distilled water. Another group was intravenously injected with 5--HDA--Na dissolved in physiological saline. One group was orally administered δ-DL emulsified in 5% aqueous arabic gum solution. One group was injected intravenously with lidocaine dissolved in physiological saline. For the respective routes of administration, control groups were administered the solvents used in administration of the test compounds. Thirty minutes after the oral administration and one minute after the intravenous injection, ouabain was infused into the jugular vein at a rate of 5 μg/kg/min until extrasystole, ventricular fibrillation and cardiac arrest appeared on a standard limb lead II of ECG. The results are shown in Table 3, with the time necessary for the respective symptoms to occur in the control groups taken as 100.

Acute toxicity = conditions: one week observation
From the text: Male ddy mice weighing about 25 g were divided into groups of 10 animals and orally administered once with 3 g/kg of 5--HDA, 5--HDA--Na, 5--HDAE, 5--HDA--DHP or δ-DL, or intraperitoneally injected once with 1 g/kg of said compounds.

[3] = Lowering serum cholesterol levels in hyperlipidemic rabbits; assay type: in vivo, male Japanese white rabbits; conditions: 100 mg/kg oral daily for 7 days
From the text: Male Japanese white rabbits weighing about 2.5 kg were fed on a solid diet containing 1% cholesterol (RC-4, Nippon Crea Co., Ltd.) for 10 weeks until hypercholesterolemia fully developed. The rabbits were then divided into groups of 5 animals, and 5--HDA--Na or δ-DL was orally admininistered daily for 7 days, either as a solution or as an emulsion in 5% aqueous arabic gum. Three hours after the last administration, blood was drawn to determine the serum level of cholesterol.

[4] = test system: chloroform-induced arrhythmia (ventricular fibrillation); assay: Effect on chloroform-induced arrhythmia; assay type: in vivo, male ddy mice; conditions: for Percent occurrence of ventricular fibrillation: 15 min before chloroform, control 100
From the text: When they stopped breathing, they were thoracotomized to examine the occurrence of ventricular fribrillation. The results are noted in Table 2 as percent occurrence of ventricular fibrillation.

[5] = Solubility (physicochemical properties, Table 1)
[6] = Lowering serum lipid levels in Triton-induced hyperlipidemic rats; assay type: in vivo, male Wistar rats
Protocol: After 10 hours, blood samples were drawn to determine the serum levels of total cholesterol and triglyceride.

[7] = 100 mg/kg oral, four times, against control, 10 hours after Triton WR-1339, *P < 0.05

CCCCCC(O)CCCC(=O)[O-].[Na+] (stereo not drawn)
Threshold level for inducing ventricular fibrillation, 30 min after ligation ([1]; 0.3 mg/kg i.v.): 67
Threshold level for inducing ventricular fibrillation, 30 min after ligation ([1]; 1.0 mg/kg i.v., *P < 0.05): 70
Threshold level for inducing ventricular fibrillation, 30 min after ligation ([1]; 3.0 mg/kg i.v., *P < 0.05): 79
threshold level for inducing ventricular fibrillation (in words) ([1]; after coronary ligation, i.v.): increased in a dose-dependent manner
relative time for extrasystole to occur ([2]; i.v., 20 mg/kg): 146
relative time for cardiac arrest to occur ([2]; i.v., 20 mg/kg, *P < 0.05): 132
relative time for ventricular fibrillation to occur ([2]; i.v., 20 mg/kg, *P < 0.05): 140
relative time for extrasystole to occur ([2]; oral, 50 mg/kg): 118
relative time for cardiac arrest to occur ([2]; oral, 50 mg/kg, *P < 0.05): 134
relative time for ventricular fibrillation to occur ([2]; oral, 50 mg/kg, *P < 0.05): 126
relative time for extrasystole to occur ([2]; oral, 100 mg/kg): 160
relative time for ventricular fibrillation to occur ([2]; oral, 100 mg/kg, *P < 0.05): 144
relative time for cardiac arrest to occur ([2]; oral, 100 mg/kg, *P < 0.05 where starred): 136
antiarrhythmic effects (in words) ([2]; ouabain induced arrhythmia): significant antiarrhythmic effects
acute toxicity: abnormality (Acute toxicity; 1 g/kg intraperitoneal once): no abnormality occurred
acute toxicity: death (Acute toxicity; 1 g/kg intraperitoneal once): no animal died
acute toxicity: abnormality (Acute toxicity; 3 g/kg oral once): no abnormality occurred
acute toxicity: death (Acute toxicity; 3 g/kg oral once): no animal died
serum level of total cholesterol (in words) [3]: lowered the serum level of total cholesterol
Total serum cholesterol ([3]; 3 h after last administration, control 1,394, *P < 0.05): 1,165 mg/dl
Percent occurrence of ventricular fibrillation ([4]; 50 mg/kg, oral): 50
anti-arrhythmic potency compared with lidocaine (in words) ([4]; 100 mg/kg oral vs lidocaine 10 mg/kg i.p.): more potent than lidocaine
anti-arrhythmic effects (in words) ([4]; 100 mg/kg, oral): significant anti-arrhythmic effects
Percent occurrence of ventricular fibrillation ([4]; 100 mg/kg, oral, *P < 0.05): 30
solubility in acetone ([5]; acetone): easily soluble
solubility in benzene ([5]; benzene): sparingly
solubility in chloroform ([5]; chloroform): sparingly
solubility in hexane ([5]; hexane): sparingly
solubility in methanol ([5]; methanol): easily soluble
solubility in water ([5]; water): easily soluble
inhibition rate, total cholesterol (serum) [6, 7]: 20%
inhibition rate, triglyceride (serum) [6, 7]: 15%
antilipidemic effects compared with Clofibrate (in words) ([6]; 100 mg/kg, oral): equipotent to or stronger than the effect of the known anti-lipidemic agent, Clofibrate
